Consider six compounds from ChEMBL document CHEMBL1150977, “A quantitative analysis of kinase inhibitor selectivity” (Nat Biotechnol, 2008).

Experiment [1] has as its target T1, Serine/threonine-protein kinase Nek1 (Homo sapiens, UniProt Q96PY6).
T1 sequence (Q96PY6 whole entry): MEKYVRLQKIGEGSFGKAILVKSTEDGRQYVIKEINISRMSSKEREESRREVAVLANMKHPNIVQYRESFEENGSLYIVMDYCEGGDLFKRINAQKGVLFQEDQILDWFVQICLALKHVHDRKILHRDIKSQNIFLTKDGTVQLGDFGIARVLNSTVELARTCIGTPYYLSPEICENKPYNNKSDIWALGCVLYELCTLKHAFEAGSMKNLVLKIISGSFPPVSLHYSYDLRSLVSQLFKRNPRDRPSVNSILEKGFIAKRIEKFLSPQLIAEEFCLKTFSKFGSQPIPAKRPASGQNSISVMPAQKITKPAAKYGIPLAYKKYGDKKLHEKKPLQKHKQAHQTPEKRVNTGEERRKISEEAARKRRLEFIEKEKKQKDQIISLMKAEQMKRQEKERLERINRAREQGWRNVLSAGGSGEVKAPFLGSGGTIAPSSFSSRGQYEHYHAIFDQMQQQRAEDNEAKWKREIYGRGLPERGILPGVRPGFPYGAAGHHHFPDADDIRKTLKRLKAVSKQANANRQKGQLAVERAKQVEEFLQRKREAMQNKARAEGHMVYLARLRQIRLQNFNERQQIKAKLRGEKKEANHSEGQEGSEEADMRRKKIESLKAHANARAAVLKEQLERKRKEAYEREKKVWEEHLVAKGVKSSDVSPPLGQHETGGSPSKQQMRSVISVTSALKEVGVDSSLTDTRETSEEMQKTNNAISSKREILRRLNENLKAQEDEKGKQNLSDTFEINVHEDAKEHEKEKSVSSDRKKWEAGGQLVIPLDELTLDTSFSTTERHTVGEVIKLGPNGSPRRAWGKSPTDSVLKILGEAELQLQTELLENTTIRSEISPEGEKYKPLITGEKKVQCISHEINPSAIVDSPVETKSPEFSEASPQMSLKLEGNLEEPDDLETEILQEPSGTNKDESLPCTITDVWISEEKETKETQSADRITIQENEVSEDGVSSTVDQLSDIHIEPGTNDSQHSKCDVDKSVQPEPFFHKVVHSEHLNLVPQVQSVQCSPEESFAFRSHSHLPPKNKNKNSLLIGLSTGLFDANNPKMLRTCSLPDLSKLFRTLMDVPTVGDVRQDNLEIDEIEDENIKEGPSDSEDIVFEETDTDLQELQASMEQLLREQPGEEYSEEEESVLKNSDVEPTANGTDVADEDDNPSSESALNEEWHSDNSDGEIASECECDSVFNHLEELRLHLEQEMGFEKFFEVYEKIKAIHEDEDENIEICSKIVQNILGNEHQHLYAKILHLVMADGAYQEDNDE

In experiment [2] the target is Tyrosine-protein kinase Srms (Homo sapiens, UniProt Q9H3Y6).
Chain of Tyrosine-protein kinase Srms (Q9H3Y6 whole entry): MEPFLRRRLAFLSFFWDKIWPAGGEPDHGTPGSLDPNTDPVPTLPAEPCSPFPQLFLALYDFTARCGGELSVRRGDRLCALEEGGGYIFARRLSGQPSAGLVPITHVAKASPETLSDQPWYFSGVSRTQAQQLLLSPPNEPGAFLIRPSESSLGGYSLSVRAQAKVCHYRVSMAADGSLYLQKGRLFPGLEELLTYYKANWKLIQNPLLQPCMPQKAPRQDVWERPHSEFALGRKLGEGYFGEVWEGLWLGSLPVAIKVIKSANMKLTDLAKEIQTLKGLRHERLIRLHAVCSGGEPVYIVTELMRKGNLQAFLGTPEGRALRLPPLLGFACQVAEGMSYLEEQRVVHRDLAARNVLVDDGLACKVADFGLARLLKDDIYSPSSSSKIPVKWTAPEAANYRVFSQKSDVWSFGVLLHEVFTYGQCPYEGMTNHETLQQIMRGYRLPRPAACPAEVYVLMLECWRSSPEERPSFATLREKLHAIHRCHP
Another experiment deals with Myosin-IIIa (Homo sapiens, UniProt Q8NEV4).
Chain of Myosin-IIIa (Q8NEV4 whole entry): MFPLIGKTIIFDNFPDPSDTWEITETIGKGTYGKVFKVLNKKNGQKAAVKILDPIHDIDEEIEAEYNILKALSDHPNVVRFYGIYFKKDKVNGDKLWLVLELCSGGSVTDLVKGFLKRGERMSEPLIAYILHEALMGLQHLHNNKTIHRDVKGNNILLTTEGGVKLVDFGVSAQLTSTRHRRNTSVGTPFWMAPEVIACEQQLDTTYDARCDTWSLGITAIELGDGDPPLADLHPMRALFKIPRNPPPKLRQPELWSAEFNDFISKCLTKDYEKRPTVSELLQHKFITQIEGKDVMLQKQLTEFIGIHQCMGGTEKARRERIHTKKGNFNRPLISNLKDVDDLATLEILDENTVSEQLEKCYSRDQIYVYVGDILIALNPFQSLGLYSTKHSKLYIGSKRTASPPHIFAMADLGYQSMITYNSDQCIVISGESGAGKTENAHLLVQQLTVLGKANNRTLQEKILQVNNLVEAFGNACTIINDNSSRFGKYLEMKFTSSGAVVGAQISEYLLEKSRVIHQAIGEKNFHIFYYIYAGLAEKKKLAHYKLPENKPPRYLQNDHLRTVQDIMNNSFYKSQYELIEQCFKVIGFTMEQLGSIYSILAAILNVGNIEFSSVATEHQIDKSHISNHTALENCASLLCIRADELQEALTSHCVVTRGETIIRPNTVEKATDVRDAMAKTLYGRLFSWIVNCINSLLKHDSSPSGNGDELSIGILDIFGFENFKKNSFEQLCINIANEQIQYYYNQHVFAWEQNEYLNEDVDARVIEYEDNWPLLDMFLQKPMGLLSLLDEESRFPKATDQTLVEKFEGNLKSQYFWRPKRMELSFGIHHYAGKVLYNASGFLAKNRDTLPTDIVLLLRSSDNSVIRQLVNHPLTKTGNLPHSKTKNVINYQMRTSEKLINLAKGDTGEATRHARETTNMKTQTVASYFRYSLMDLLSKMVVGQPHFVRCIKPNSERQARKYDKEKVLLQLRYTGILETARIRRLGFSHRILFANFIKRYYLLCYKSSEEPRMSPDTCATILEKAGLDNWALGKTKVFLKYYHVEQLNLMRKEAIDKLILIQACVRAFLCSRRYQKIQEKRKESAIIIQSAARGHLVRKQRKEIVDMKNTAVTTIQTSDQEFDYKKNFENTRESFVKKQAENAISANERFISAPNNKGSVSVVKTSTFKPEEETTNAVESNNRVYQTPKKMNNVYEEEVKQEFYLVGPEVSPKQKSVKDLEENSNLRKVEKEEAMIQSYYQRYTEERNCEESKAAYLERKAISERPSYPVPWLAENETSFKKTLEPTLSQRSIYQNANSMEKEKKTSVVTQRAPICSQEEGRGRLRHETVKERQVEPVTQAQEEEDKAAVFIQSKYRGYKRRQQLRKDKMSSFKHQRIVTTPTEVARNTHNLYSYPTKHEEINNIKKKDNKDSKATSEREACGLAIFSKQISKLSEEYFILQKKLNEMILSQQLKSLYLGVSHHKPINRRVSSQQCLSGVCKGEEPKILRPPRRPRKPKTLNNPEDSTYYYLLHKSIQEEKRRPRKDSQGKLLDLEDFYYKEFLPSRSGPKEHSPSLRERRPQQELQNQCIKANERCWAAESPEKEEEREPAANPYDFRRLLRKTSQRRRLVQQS
The target in experiment [3] is Serine/threonine-protein kinase 32B (Homo sapiens, UniProt Q9NY57).
Chain of Serine/threonine-protein kinase 32B (Q9NY57 whole entry): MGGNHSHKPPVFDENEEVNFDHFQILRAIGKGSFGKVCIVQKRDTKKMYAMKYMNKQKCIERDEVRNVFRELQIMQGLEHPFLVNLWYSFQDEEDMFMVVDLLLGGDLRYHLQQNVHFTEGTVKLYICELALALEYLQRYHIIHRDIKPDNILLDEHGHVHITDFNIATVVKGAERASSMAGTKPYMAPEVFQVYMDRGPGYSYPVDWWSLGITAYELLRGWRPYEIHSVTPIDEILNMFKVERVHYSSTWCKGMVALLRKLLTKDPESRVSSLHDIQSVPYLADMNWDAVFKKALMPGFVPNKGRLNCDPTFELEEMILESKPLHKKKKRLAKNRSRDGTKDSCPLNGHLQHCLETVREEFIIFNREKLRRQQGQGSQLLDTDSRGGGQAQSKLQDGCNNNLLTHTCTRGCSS
Experiment [4] addresses Insulin-like growth factor 1 receptor (Homo sapiens, UniProt P08069).
For experiment [5], the target named is T2, Serine/threonine-protein kinase STK11 (Homo sapiens, UniProt Q15831).
T2 sequence (Q15831 whole entry): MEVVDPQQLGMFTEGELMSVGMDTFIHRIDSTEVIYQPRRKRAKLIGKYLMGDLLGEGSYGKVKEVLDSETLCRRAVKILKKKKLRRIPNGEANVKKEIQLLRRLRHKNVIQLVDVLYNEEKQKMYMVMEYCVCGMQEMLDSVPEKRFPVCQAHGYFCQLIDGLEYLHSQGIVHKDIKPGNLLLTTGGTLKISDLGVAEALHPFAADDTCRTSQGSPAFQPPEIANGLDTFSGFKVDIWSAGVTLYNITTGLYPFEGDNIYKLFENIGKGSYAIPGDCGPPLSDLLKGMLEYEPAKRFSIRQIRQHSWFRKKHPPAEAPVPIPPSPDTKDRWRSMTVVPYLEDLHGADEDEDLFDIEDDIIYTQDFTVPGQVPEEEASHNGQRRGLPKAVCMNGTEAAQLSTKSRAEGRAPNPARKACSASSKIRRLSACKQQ

Experiment [6] concerns the target Tyrosine-protein kinase ABL1 (Homo sapiens, UniProt P00519, Y253F).
Experiment [7] concerns the target T3, Dual specificity mitogen-activated protein kinase kinase 6 (Homo sapiens, UniProt P52564).
T3 sequence (P52564 whole entry): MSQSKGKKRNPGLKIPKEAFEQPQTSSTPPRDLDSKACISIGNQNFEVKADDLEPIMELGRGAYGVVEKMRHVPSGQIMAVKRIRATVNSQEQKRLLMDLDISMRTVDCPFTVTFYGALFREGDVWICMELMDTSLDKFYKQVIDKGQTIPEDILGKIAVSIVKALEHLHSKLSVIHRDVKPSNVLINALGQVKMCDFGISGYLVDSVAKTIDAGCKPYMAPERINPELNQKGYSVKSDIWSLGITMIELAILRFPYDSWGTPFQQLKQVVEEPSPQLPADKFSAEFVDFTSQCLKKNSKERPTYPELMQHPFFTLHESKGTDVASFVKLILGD

Experiment [8] addresses T4, Tyrosine-protein kinase ZAP-70 (Homo sapiens, UniProt P43403).
T4 sequence (P43403 whole entry): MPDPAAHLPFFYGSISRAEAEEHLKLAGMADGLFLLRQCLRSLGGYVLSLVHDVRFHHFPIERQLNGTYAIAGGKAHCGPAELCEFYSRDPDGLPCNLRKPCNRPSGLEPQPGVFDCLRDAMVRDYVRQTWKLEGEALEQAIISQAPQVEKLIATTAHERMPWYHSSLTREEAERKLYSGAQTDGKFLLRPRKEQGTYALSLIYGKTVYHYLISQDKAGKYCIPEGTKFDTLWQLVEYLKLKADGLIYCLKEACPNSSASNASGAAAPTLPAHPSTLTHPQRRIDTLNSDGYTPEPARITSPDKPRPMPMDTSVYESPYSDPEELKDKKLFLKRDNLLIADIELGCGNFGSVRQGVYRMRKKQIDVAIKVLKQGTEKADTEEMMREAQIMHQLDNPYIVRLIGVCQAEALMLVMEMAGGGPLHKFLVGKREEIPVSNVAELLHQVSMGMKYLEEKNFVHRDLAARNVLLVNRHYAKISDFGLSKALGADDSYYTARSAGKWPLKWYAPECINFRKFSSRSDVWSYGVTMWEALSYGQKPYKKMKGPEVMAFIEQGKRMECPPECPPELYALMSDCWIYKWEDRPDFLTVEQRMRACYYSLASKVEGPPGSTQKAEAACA

The target of experiment [9] is Phosphatidylinositol 4-phosphate 5-kinase type-1 alpha (Homo sapiens, UniProt Q99755).
Chain of Phosphatidylinositol 4-phosphate 5-kinase type-1 alpha (Q99755 whole entry): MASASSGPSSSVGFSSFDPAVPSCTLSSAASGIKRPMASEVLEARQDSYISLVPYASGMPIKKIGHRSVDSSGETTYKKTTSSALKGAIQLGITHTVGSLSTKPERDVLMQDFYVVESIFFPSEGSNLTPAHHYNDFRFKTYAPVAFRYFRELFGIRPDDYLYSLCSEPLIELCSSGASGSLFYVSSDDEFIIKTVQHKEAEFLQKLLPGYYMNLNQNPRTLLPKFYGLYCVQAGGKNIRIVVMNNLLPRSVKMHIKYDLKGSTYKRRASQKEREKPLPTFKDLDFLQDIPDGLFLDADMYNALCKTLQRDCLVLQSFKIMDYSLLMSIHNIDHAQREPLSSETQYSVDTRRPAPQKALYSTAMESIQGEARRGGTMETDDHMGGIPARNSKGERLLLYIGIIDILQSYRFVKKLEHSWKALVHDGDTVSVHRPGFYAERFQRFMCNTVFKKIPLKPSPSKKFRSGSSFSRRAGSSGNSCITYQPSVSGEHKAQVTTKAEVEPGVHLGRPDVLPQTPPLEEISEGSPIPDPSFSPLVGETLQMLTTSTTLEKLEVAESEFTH

SMILES strings stand for the structures.

Chain of Insulin-like growth factor 1 receptor (P08069 31-736 limits assumed): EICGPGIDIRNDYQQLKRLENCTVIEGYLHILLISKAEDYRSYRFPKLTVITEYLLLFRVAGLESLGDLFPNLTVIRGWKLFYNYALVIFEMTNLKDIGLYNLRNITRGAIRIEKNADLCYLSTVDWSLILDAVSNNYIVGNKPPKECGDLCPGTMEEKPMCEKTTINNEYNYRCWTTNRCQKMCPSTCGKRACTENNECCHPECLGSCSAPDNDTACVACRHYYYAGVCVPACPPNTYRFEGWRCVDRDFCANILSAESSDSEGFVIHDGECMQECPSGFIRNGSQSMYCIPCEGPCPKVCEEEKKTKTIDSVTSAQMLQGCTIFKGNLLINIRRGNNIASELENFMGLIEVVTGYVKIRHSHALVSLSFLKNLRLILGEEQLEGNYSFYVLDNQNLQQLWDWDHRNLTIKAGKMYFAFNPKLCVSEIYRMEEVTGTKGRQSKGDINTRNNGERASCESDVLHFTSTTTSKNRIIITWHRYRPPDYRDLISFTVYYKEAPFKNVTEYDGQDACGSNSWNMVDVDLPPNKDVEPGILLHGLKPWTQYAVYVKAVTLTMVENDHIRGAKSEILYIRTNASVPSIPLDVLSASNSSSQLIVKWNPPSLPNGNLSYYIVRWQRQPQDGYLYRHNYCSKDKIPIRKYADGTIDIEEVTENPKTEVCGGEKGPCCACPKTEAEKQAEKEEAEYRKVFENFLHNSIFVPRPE
Chain of Insulin-like growth factor 1 receptor (P08069 741-1367 limits assumed): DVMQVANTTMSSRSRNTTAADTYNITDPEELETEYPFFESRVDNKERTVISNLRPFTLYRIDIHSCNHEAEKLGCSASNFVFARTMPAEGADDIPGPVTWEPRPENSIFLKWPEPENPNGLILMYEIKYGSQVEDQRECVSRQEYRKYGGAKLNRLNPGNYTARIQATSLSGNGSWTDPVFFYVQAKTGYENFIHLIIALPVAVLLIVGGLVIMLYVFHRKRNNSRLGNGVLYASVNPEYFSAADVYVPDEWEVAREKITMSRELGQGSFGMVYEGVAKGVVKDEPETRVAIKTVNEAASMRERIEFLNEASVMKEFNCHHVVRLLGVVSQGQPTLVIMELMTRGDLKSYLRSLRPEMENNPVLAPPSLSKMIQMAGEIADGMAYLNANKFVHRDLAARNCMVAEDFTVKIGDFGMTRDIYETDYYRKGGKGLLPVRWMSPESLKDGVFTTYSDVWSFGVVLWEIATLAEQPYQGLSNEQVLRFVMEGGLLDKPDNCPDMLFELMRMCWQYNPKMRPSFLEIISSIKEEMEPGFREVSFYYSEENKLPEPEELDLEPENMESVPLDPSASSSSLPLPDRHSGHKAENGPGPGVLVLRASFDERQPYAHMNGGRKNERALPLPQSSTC

`CCN1CCN(Cc2ccc(NC(=O)Nc3ccc(Oc4cc(NC)ncn4)cc3)cc2C(F)(F)F)CC1` [AST-487]: the equilibrium dissociation constant (Kd) in [1] is more than 10 µM.

Take `COCC(=O)NC/C=C/c1ccc2ncnc(Nc3ccc(Oc4ccc(C)nc4)c(C)c3)c2c1` [CP-724714]: the Kd (in [2]; on Myosin-IIIa; in experiment [3]; in [4]; in experiment [5]; in [1]) was more than 10 µM throughout. Further, the Kd in experiment [6], in experiment [7], in experiment [8] and in experiment [9] was more than 10 µM in each case.

In the case of `Nc1nc(Nc2ccc(S(N)(=O)=O)cc2)nn1C(=O)c1c(F)cccc1F` [JNJ-7706621], the Kd (in [2]; at Myosin-IIIa; in experiment [3]; in experiment [5]; in experiment [1]; in experiment [8]) was more than 10 µM in each case. In experiment [9], this compound showed a Kd of 9.2 µM.

On to `CCOc1cc2ncc(C#N)c(Nc3ccc(F)c(Cl)c3)c2cc1NC(=O)/C=C/CN(C)C` [PELITINIB], for which the equilibrium dissociation constant (Kd) in experiment [2] was more than 10 µM; at Myosin-IIIa, more than 10 µM; in experiment [3], 6 µM; in experiment [4], more than 10 µM; in experiment [5] it was more than 10 µM; in experiment [7], more than 10 µM. For the same compound, the Kd in experiment [8] and in experiment [9] was more than 10 µM each time.

`Oc1ccc(-c2nc(-c3ccncc3)c(-c3ccc(F)cc3)[nH]2)cc1` [SB-202190]: the Kd in [2] was more than 10 µM; at Myosin-IIIa it was more than 10 µM; in [3], 4.9 µM; in experiment [4], more than 10 µM; in experiment [5], more than 10 µM; in [1], more than 10 µM. The dissociation constant (Kd) in experiment [6], in experiment [7], in [8] and in experiment [9] was more than 10 µM each time.

On to `NC(=O)c1ccc(-c2nc(-c3ccc4c(c3)OCO4)c(-c3ccccn3)[nH]2)cc1` [SB-431542], for which the Kd (in [2]; at Myosin-IIIa; in experiment [3]; in experiment [4]; in [5]; in experiment [1]) was more than 10 µM throughout. Moreover, the Kd in experiment [6], in experiment [7], in experiment [8] and in [9] was more than 10 µM in each case.

A word on the Kd: it is the concentration at which binding is half-saturated. The low end stands for a tighter complex, the high end for a looser complex.
